In a melting point compilation (Tetko et al.; mined from patent text by program, amines drawn as free bases though some values may be those of a salt):

Structure (SMILES)	melting point [°C]
O=C(NCCN1CCC(Nc2nc3ccccc3n2Cc2ccc(F)cc2)CC1)c1cc2ccccc2[nH]1	232
CCCCN1C(=O)CCC(C)(C)c2cc(C(=O)Nc3ccc(C(=O)O)cc3)ccc21	269
CN(C)Cc1c[nH]c2cc(Cl)ccc12	130 to 133
CC(=O)OCc1[nH]c(C(=O)OCc2ccccc2)c(C)c1C(C)=O	97 to 100
CC1(c2ccc(F)cc2)CN(Cc2ccc(COc3cccc4c3CN(C3CCC(=O)NC3=O)C4=O)cc2)CCO1 (configuration not stated)	118 to 120
CC12CCC3c4ccc(O)cc4C(=O)C(Sc4ccc(O)cc4)C3C1CCC2O (configuration not stated)	120 to 124
O=C(O)C(Sc1ccccc1)c1cc(Cl)cc(Cl)c1 (configuration not stated)	115 to 119
COC(=O)CN(C)CC(=O)Nc1cccc2c1C(=O)c1c(NC(=O)CN(C)CC(=O)OC)cccc1C2=O	129 to 130
Nc1cc(Sc2ccc3c(C(=O)Nc4ccc(F)c(C(F)(F)F)c4)cccc3c2)ncn1	221
Nc1ccc(-n2cnc(-c3ccc(C(F)(F)F)cc3)n2)cc1Cl	148
N#CCCNC(=O)C1=CC(CF)(CF)Oc2ccc(C(F)(F)F)cc21	129 to 131
Nc1nc(O)c2c(n1)NCC(CCC1CCC(N[C@@H](CCC(=O)O)C(=O)O)CC1)C2 (some centres not stated)	210 to 225
CC(C)(C)CC(C)(C)c1cc(-n2nc3ccccc3n2)c(O)c(C(C)(C)c2ccccc2)c1	109 to 111
CNCC1Cc2cc(-c3ccccc3)cc(-c3ccccc3OC)c2O1 (configuration not stated)	140 to 143
Cc1cc2c(c(C(C)(C)C)c1)OC(=O)C2OC(=O)CCc1cc(C(C)(C)C)c(O)c(C(C)(C)C)c1 (configuration not stated)	151 to 154
O=C1Nc2cccc(Cl)c2C(=O)N2CCC[C@@H]12	264 to 266

Second part, the molecule after the results:

melting point [°C]	Structure (SMILES)
> 280	COc1c(C#Cc2ccc(NS(C)(=O)=O)cc2C)cc(N2CCC(=O)NC2=O)cc1C(C)(C)C
94	COC(C)=CC(=O)NC1CCCC1
93 to 95	CCN1CC(=O)N(C(C)c2ccc(F)cc2)C1=S (configuration not stated)
149 to 151	CNc1nc(-c2cccc(NC(=O)c3ccc(N(C)C)nc3)c2)c2cc(OC)c(OC)cc2n1
96 to 99	CCOC(=O)C(C)(C)c1ccc2c(c1)Nc1ccccc1S2
198 to 200	CC(C=CCC(C)(C)O)C1CCC2C3=CC=C4CC(O)CCC4(C)C3CCC21C (configuration not stated)
202	CC(C)NC(=O)N1CCc2[nH]cnc2C1C(C)C (configuration not stated)
80 to 82	O=C1OCc2c(Cl)cccc21
157 to 159	O=C(O)C1C2CCC(C2)C1NS(=O)(=O)c1ccccc1 (configuration not stated)
166 to 169	CC(C)(C)OC(=O)N1CCC(c2ccc3nc(-c4ccc(S(C)(=O)=O)cc4F)oc3c2)CC1
95 to 97	COc1ccccc1N1CCN(C(=O)Cc2ccccc2Br)CC1
85 to 87	Cc1nc(COc2ccc(C[C@@H](C)[C@@H](C)Cc3ccc(OCc4csc(C)n4)c(OCc4csc(C)n4)c3)cc2OCc2csc(C)n2)cs1
71	CC(C)Oc1cccc(CSc2nc(N)cc(Cl)n2)c1
291 to 293	S=C1N=c2ccc(OCCN3CCC(Cc4ccc(Cl)cc4)CC3)cc2=N1
250	Cc1cc(-c2cnn3c(C(F)(F)F)cc(-c4ccc(C(F)(F)F)c(F)c4)nc23)ccn1
128 to 132	CCC(C)(CC)NC(=S)Nc1cc(Cl)cc(Cl)c1
188 to 192	NCc1ccc2cc(O)ccc2c1
193 to 194	CC(=O)OC1CCCN(C(=O)c2ccc(NC(=O)c3ccccc3C)cc2)c2ccccc21 (configuration not stated)
70.1	c1ccc(CNc2ccc3ccccc3c2-c2c(P(c3ccccc3)c3ccccc3)ccc3ccccc23)cc1
93	Cc1cc(Br)c(C=O)c2ccccc12
75 to 78	O=C(O)[C@H](Cc1ccc(OCc2ccccc2)cc1)NS(=O)(=O)c1ccc(N2CCC(c3ccccc3)CC2)cc1
